From PMC12345723, “Valorization of Coffee Silverskin via Integrated Biorefinery for the Production of Bioactive Peptides and Xylooligosaccharides: Functional and Prebiotic Properties” (Foods, 2025)
Marks after values point to notes of the source that are not given here.

Columns and labels:
[1] = ABTS radical scavenging assay; settings: for Antioxidant Activity: ABTS, peptide 500 μM (table footnote), 30 min, absorbance 734 nm, mean ± SD, n = 3
Experimental: Antioxidant activity analysis was performed in the dark. DPPH, ABTS radical scavenging activity, and the ferric-reducing antioxidant power (FRAP) assay were determined following the method described by Jirarat et al. (2024). Concisely, samples were diluted using distilled water to the desired concentration. For the DPPH assay, a 500 μL sample was mixed with 500 μL of ethanolic DPPH solution (80 mg/L) for 60 min before measuring the absorbance at 517 nm. The ABTS radical (ABTS+) solution was prepared by incubating the mixture of 2.45 mM potassium persulfate solution and 7 mM ABTS solution (1:1, v/v) for 12–16 h. The deionized water was used for diluting the ABTS^+ solution to 0.70 ± 0.02 at an absorbance of […]. After that, the ABTS assay was performed by incubating a 50 μL sample with 850 μL of prepared ABTS^+ solution for 30 min, and the radical scavenging activity was determined by measuring the absorbance at 734 nm. Furthermore, the FRAP assay was performed by preparing the FRAP reagent, which consisted of 300 mM acetate buffer (pH 3.6), 20 mM FeCl3·6H2O, and 10 mM TPTZ in 40 mM HCl, mixed in a 10:1:1 volume ratio. Then, 100 μL of the sample was mixed with 900 μL the FRAP reagent and incubated for 30 min. […] The antioxidant capacity in all assays was expressed as micromoles of Trolox equivalents per liter (μmol TE/L) based on a Trolox standard curve.

[2] = test system: Dipeptidyl Peptidase-IV (DPP-IV); settings: peptide 5000 μM; Gly-Pro-p-nitroanilide, Tris-HCl pH 8.0, 37 °C, 60 min; absorbance 385 nm; mean ± SD, n = 3
Experimental: The DPP-IV inhibitory activity was determined using a modified method based on Lacroix and Li-Chan [22]. Briefly, the synthetic peptide was diluted in 100 mM Tris-HCl buffer (pH 8.0) to a final concentration of 5000 μM. The reaction mixture was prepared in a 1.5 mL microcentrifuge tube by combining 75 μL of Gly-Pro-p-nitroanilide (1.59 mM), 50 μL of Tris-HCl buffer (pH 8.0), and 25 μL of the peptide sample. The mixture was pre-incubated at 37 °C for 10 min. Following pre-incubation, 50 μL of DPP-IV enzyme solution (0.01 U/mL) was added, and the reaction was incubated at 37 °C for 60 min. The reaction was terminated by adding 300 μL of 99.8% ethanol. The absorbance of the reaction mixture was measured at 385 nm, and the DPP-IV inhibitory activity was calculated and expressed as a percentage of inhibition.
ACE inhibitory activity was assessed at a peptide concentration of 500 μM, while DPP-IV inhibitory activity and antioxidant activity (ABTS radical scavenging assay) were evaluated at a concentration of 5000 μM.

[3] = test system: RAW 264.7 cells; settings: RAW 264.7, 24 h, 0–200 µg/mL, SRB assay
Experimental: The cytotoxicity of synthetic bioactive peptides was evaluated using the sulforhodamine B (SRB) colorimetric assay, as described by Vichai and Kirtikara. Briefly, RAW 264.7 murine macrophage cells were seeded at a 2 × 10^4 cells/well density in 96-well plates and incubated for 24 h. The cells were then treated with various concentrations of peptides (0–200 μg/mL) for an additional 24 h. After treatment, the cells were fixed with cold trichloroacetic acid (TCA) and stained with 0.4% (w/v) SRB in 1% (v/v) acetic acid. Unbound dye was removed by washing, and protein-bound SRB was solubilized using […] Tris base solution. Absorbance was measured at 520 nm using a microplate reader, and cell viability was calculated as a percentage relative to untreated control cells. Non-cytotoxic concentrations of the peptides were subsequently used for further investigation of their anti-inflammatory effects on LPS-induced nitric oxide (NO) production in RAW 264.7 cells.

[4] = test system: RAW 264.7 macrophages; settings: cited from earlier work
Experimental: A peptide concentration of 200 µg/mL was selected based on preliminary cytotoxicity screening using RAW 264.7 macrophage cells, which confirmed that this dose was non-toxic under the experimental conditions.

Substance	Antioxidant Activity [1]	DPP-IV Inhibition [2]	cytotoxicity [3]	cytotoxic effects [4]	ABTS radical scavenging activity ([1]; peptide 5000 μM as printed in the text)
FDYGKY [phenylalanine-aspartic acid-tyrosine-glycine-lysine-tyrosine]	50 ± 1 ^a %	0%	non-toxic	–	–
GTWY [peptide derived from whey protein hydrolysates]	–	–	–	no cytotoxic effects	–
FLGY [phenylalanine-leucine-glycine-tyrosine]	48 ± 1 ^a %	19 ± 1 ^a %	non-toxic	–	48%
phenylalanine-tyrosine-aspartic acid-threonine-tyrosine-tyrosine [FYDTYY]	–	18 ± 3 ^a %	non-toxic	–	–
DYKKY [peptide derived from whey protein hydrolysates]	–	–	–	no cytotoxic effects	–
